Key:
[1] = system: Rattus norvegicus; assay: Total electrolytic excretion of sodium in urine of rats after peroral administration of 37.6 uM/Kg of drug; format: ADME, organism-based; conditions: in vivo, po
[2] = system: Rattus norvegicus; assay: Total electrolytic excretion of chlorine in urine of rats after peroral administration of 11.3 uM/Kg of drug; format: ADME, organism-based; conditions: in vivo, po
[3] = system: Canis familiaris; assay: Tested for the diuretic activity by measuring the urinary volume after peroral administering 3.76 uM/Kg of drug in dogs; format: ADME, organism-based, Canis lupus familiaris, Urine; conditions: dog, in vivo, po
[4] = system: Rattus norvegicus; assay: Total electrolytic excretion of chlorine in urine of rats after peroral administration of 0 uM/Kg of drug; format: ADME, organism-based; conditions: in vivo, po
[5] = system: Rattus norvegicus; assay: Total electrolytic excretion of sodium in urine of rats after peroral administration of 11.3 uM/Kg of drug; format: ADME, organism-based; conditions: in vivo, po
[6] = system: Canis familiaris; assay: Total electrolytic excretion of sodium in urine of dogs after peroral administration of 3.76 uM/Kg of drug; format: ADME, organism-based, Canis lupus familiaris; conditions: dog, in vivo, po
[7] = system: Rattus norvegicus; assay: Tested for the diuretic activity by measuring the urinary volume after peroral administering 1.13 uM/Kg of drug in rats; format: ADME, organism-based, Urine; conditions: in vivo, po
[8] = system: Canis familiaris; assay: Total electrolytic excretion of chlorine in urine of dogs after peroral administration of 3.76 uM/Kg of drug; format: ADME, organism-based, Canis lupus familiaris; conditions: dog, in vivo, po
[9] = system: Rattus norvegicus; assay: Tested for the diuretic activity by measuring the urinary volume after peroral administering 37.6 uM/Kg of drug in rats; format: ADME, organism-based, Urine; conditions: in vivo, po
[10] = system: Canis familiaris; assay: Ratio of Total electrolytic excretion of sodium and potassium in urine of dogs after peroral administration of 1.13 uM/Kg of drug; format: ADME, organism-based, Canis lupus familiaris; conditions: dog, in vivo, po
[11] = system: Canis familiaris; assay: Total electrolytic excretion of potassium in urine of dogs after peroral administration of 3.76 uM/Kg of drug; format: ADME, organism-based, Canis lupus familiaris; conditions: dog, in vivo, po
[12] = system: Rattus norvegicus; assay: Total electrolytic excretion of chlorine in urine of rats after peroral administration of 3.76 uM/Kg of drug; format: ADME, organism-based; conditions: in vivo, po
[13] = system: Rattus norvegicus; assay: Tested for the diuretic activity by measuring the urinary volume after peroral administering 113 uM/Kg of drug in rats; format: ADME, organism-based, Urine; conditions: in vivo, po
[14] = system: Canis familiaris; assay: Ratio of Total electrolytic excretion of sodium and potassium in urine of dogs after peroral administration of 0 uM/Kg of drug; format: ADME, organism-based, Canis lupus familiaris; conditions: dog, in vivo, po
[15] = system: Rattus norvegicus; assay: Tested for the diuretic activity by measuring the urinary volume after peroral administering 3.76 uM/Kg of drug in rats; format: ADME, organism-based, Urine; conditions: in vivo, po
[16] = system: Rattus norvegicus; assay: Total electrolytic excretion of sodium in urine of rats after peroral administration of 113 uM/Kg of drug; format: ADME, organism-based; conditions: in vivo, po
[17] = system: Canis familiaris; assay: Ratio of Total electrolytic excretion of sodium and potassium in urine of dogs after peroral administration of 37.6 uM/Kg of drug; format: ADME, organism-based, Canis lupus familiaris; conditions: dog, in vivo, po
[18] = system: Canis familiaris; assay: Ratio of Total electrolytic excretion of sodium and potassium in urine of dogs after peroral administration of 113 uM/Kg of drug; format: ADME, organism-based, Canis lupus familiaris; conditions: dog, in vivo, po
[19] = system: Rattus norvegicus; assay: Total electrolytic excretion of potassium in urine of rats after peroral administration of 11.3 uM/Kg of drug; format: ADME, organism-based; conditions: in vivo, po
[20] = system: Canis familiaris; assay: Ratio of Total electrolytic excretion of sodium and potassium in urine of dogs after peroral administration of 11.3 uM/Kg of drug; format: ADME, organism-based, Canis lupus familiaris; conditions: dog, in vivo, po
[21] = system: Rattus norvegicus; assay: Total electrolytic excretion of potassium in urine of rats after peroral administration of 113 uM/Kg of drug; format: ADME, organism-based; conditions: in vivo, po
[22] = system: Rattus norvegicus; assay: Total electrolytic excretion of sodium in urine of rats after peroral administration of 3.76 uM/Kg of drug; format: ADME, organism-based; conditions: in vivo, po
[23] = system: Rattus norvegicus; assay: Total electrolytic excretion of chlorine in urine of rats after peroral administration of 113 uM/Kg of drug; format: ADME, organism-based; conditions: in vivo, po
[24] = system: Rattus norvegicus; assay: Total electrolytic excretion of potassium in urine of rats after peroral administration of 3.76 uM/Kg of drug; format: ADME, organism-based; conditions: in vivo, po
[25] = system: Rattus norvegicus; assay: Total electrolytic excretion of chlorine in urine of rats after peroral administration of 1.13 uM/Kg of drug; format: ADME, organism-based; conditions: in vivo, po
[26] = system: Rattus norvegicus; assay: Total electrolytic excretion of potassium in urine of rats after peroral administration of 37.6 uM/Kg of drug; format: ADME, organism-based; conditions: in vivo, po
[27] = system: Rattus norvegicus; assay: Total electrolytic excretion of chlorine in urine of rats after peroral administration of 37.6 uM/Kg of drug; format: ADME, organism-based; conditions: in vivo, po
[28] = system: Rattus norvegicus; assay: Total electrolytic excretion of potassium in urine of rats after peroral administration of 0 uM/Kg of drug; format: ADME, organism-based; conditions: in vivo, po
[29] = system: Rattus norvegicus; assay: Total electrolytic excretion of sodium in urine of rats after peroral administration of 1.13 uM/Kg of drug; format: ADME, organism-based; conditions: in vivo, po
[30] = system: Rattus norvegicus; assay: Total electrolytic excretion of potassium in urine of rats after peroral administration of 1.13 uM/Kg of drug; format: ADME, organism-based; conditions: in vivo, po
[31] = system: Rattus norvegicus; assay: Total electrolytic excretion of sodium in urine of rats after peroral administration of 0 uM/Kg of drug; format: ADME, organism-based; conditions: in vivo, po
[32] = system: Rattus norvegicus; assay: Tested for the diuretic activity by measuring the urinary volume after peroral administering 0 uM/Kg of drug in rats; format: ADME, organism-based, Urine; conditions: in vivo, po
[33] = system: Rattus norvegicus; assay: Tested for the diuretic activity by measuring the urinary volume after peroral administering 11.3 uM/Kg of drug in rats; format: ADME, organism-based, Urine; conditions: in vivo, po
[34] = system: Rattus norvegicus; assay: Total electrolytic excretion of potassium in urine of rats after peroral administration of 77.5 uM/Kg of drug; format: ADME, organism-based; conditions: in vivo, po
[35] = system: Rattus norvegicus; assay: Total electrolytic excretion of chlorine in urine of rats after peroral administration of 259 uM/Kg of drug; format: ADME, organism-based; conditions: in vivo, po
[36] = system: Rattus norvegicus; assay: Tested for the diuretic activity by measuring the urinary volume after peroral administering 77.5 uM/Kg of drug in rats; format: ADME, organism-based, Urine; conditions: in vivo, po
[37] = system: Rattus norvegicus; assay: Ratio of Total electrolytic excretion of sodium and potassium in urine of rats after peroral administration of 259 uM/Kg of drug; format: ADME, organism-based; conditions: in vivo, po
[38] = system: Rattus norvegicus; assay: Total electrolytic excretion of chlorine in urine of rats after peroral administration of 25.9 uM/Kg of drug; format: ADME, organism-based; conditions: in vivo, po
[39] = system: Rattus norvegicus; assay: Total electrolytic excretion of sodium in urine of rats after peroral administration of 25.9 uM/Kg of drug; format: ADME, organism-based; conditions: in vivo, po
[40] = system: Rattus norvegicus; assay: Total electrolytic excretion of potassium in urine of rats after peroral administration of 259 uM/Kg of drug; format: ADME, organism-based; conditions: in vivo, po
[41] = system: Rattus norvegicus; assay: Total electrolytic excretion of sodium in urine of rats after peroral administration of 77.5 uM/Kg of drug; format: ADME, organism-based; conditions: in vivo, po
[42] = system: Rattus norvegicus; assay: Total electrolytic excretion of potassium in urine of rats after peroral administration of 25.9 uM/Kg of drug; format: ADME, organism-based; conditions: in vivo, po
[43] = system: Rattus norvegicus; assay: Total electrolytic excretion of chlorine in urine of rats after peroral administration of 77.5 uM/Kg of drug; format: ADME, organism-based; conditions: in vivo, po
[44] = system: Rattus norvegicus; assay: Total electrolytic excretion of sodium in urine of rats after peroral administration of 259 uM/Kg of drug; format: ADME, organism-based; conditions: in vivo, po
[45] = system: Rattus norvegicus; assay: Tested for the diuretic activity by measuring the urinary volume after peroral administering 259 uM/Kg of drug in rats; format: ADME, organism-based, Urine; conditions: in vivo, po
[46] = system: Rattus norvegicus; assay: Tested for the diuretic activity by measuring the urinary volume after peroral administering 25.9 uM/Kg of drug in rats; format: ADME, organism-based, Urine; conditions: in vivo, po
[47] = system: Rattus norvegicus; assay: Ratio of Total electrolytic excretion of sodium and potassium in urine of rats after peroral administration of 77.7 uM/Kg of drug; format: ADME, organism-based; conditions: in vivo, po
[48] = system: Rattus norvegicus; assay: Ratio of Total electrolytic excretion of sodium and potassium in urine of rats after peroral administration of 25.9 uM/Kg of drug; format: ADME, organism-based; conditions: in vivo, po

N=C(N)NC(=O)c1nc(Cl)c(N)nc1N [AMILORIDE]
Excretion Na+ [1]: 2.27 m equiv
Excretion Cl- [2]: 1.73 m equiv
V [3]: 59 mL
Excretion Cl- [4]: 0.78 m equiv
Excretion Na+ [5]: 2.17 m equiv
Excretion Na+ [6]: 9.5 m equiv
V [7]: 7.2 mL
Excretion Cl- [8]: 4.3 m equiv
V [9]: 13.9 mL
Ratio [10]: 7.8 [Na+]/[K+]
Excretion K+ [11]: 0.4 m equiv
Excretion Cl- [12]: 1.29 m equiv
V [13]: 9.4 mL
Ratio [14]: 2 [Na+]/[K+]
V [15]: 9.1 mL
Excretion Na+ [16]: 1.77 m equiv
Ratio [17]: 45.2 [Na+]/[K+]
Ratio [18]: 38.8 [Na+]/[K+]
Excretion K+ [19]: 0.07 m equiv
Ratio [20]: 30.8 [Na+]/[K+]
Excretion K+ [21]: 0.05 m equiv
Excretion Na+ [22]: 1.65 m equiv
Excretion Cl- [23]: 1.43 m equiv
Excretion K+ [24]: 0.1 m equiv
Excretion Cl- [25]: 1.14 m equiv
Excretion K+ [26]: 0.05 m equiv
Excretion Cl- [27]: 1.86 m equiv
Excretion K+ [28]: 0.36 m equiv
Excretion Na+ [29]: 1.33 m equiv
Excretion K+ [30]: 0.17 m equiv
Excretion Na+ [31]: 0.73 m equiv
V [32]: 4.8 mL
V [33]: 12.6 mL

C1CCCC(/N=C(/NC2CCCCCCC2)N2CCOCC2)CCC1
Excretion K+ [34]: 0.27 m equiv
Excretion Cl- [35]: 1.05 m equiv
V [36]: 11.8 mL
Ratio [37]: 7.5
Excretion Cl- [38]: 1.5 m equiv
Excretion Na+ [39]: 1.45 m equiv
Excretion K+ [40]: 0.16 m equiv
Excretion Na+ [41]: 1.89 m equiv
Excretion K+ [42]: 0.26 m equiv
Excretion Cl- [43]: 1.99 m equiv
Excretion Na+ [44]: 1.17 m equiv
V [45]: 5 mL
V [46]: 8.7 mL
Ratio [47]: 7.1
Ratio [48]: 5.5

Source: ChEMBL document CHEMBL1127385, “Synthesis and diuretic activity of alkyl- and arylguanidine analogs of N,N'-dicyclohexyl-4-morpholinecarboxamidine in rats and dogs” (J Med Chem, 1994)
